Assay results reported in patent US20250312349A1, “COMPOSITION AND METHODS OF TREATING INTRACELLULAR PATHOGEN INFECTION” (UNIVERSITY HOSPITALS CLEVELAND MEDICAL CENTER, priority 2024, published 2025).

What was measured:
Lek and Fyn in T cells = details: cited from earlier work
T. gondii [1] = experiment: In vitro infection of mammalian cells with T. gondii tachyzoites, counted by light microscopy; assay type: cell-based, Toxoplasma gondii; details: CHO cells, 0.3 μM or 1 μM, 2 or 24 hours
Method: Chinese Hamster Ovary (CHO; a gift from Cathleen Carlin, Case Western Reserve University), human retinal pigment epithelial (RPE) cells (ARPE-19; American Type Culture Collection, ATCC, Manassas, VA), and mouse endothelial […]) transduced with Src shRNA or control encoding lentiviral vectors were cultured in complete media. Mouse brain endothelial cells expressing WT or DN EGFR were isolated as described. Endothelial cells were cultured in medium containing Endothelial Cell Growth Supplement (ECGS; Sigma-Aldrich, St Louis, MO). Mammalian cells were infected with tachyzoites of the RH or PTG stains of T. gondii; RH strain was used unless otherwise indicated. Cells were fixed at 2 hours or 24 hours followed by staining using Hema 3 Manual Staining System (Fisherbrand, Hampton, NH). At least 100 to 200 cells per monolayer were counted by examining a minimum of 5 random areas per monolayer. The percentage of infected cells, tachyzoites and vacuoles per 100 cells, and tachyzoites per vacuole were counted using light microscopy. Three independent experiments were performed. Saracatinib, Gefitinib (LC Laboratories, Woburn, MA) and lysosomal inhibitors leupeptin and pepstatin (10 μM; Millipore Sigma, Burlington, MA) were used in specified experiments. Each cell monolayer was generated and infected independently.

T. gondii [2] = details: mice with ocular and cerebral toxoplasmosis, dependent on Beclin 1; cited from earlier work

In the case of `Cc1nc(Nc2ncc(C(=O)Nc3c(C)cccc3Cl)s2)cc(N2CCN(CCO)CC2)n1.O` [Dasatinib, N-(2-chloro-6-methylphenyl)-2-[[6-[4-(2-hydroxyethyl)-1-piperazinyl]-2-methyl-4-pyrimidinyl]amino]-5-thiazole carboxamide monohydrate], the “IFN-γ production by T cells” value (Lek and Fyn in T cells) is listed as “impaired” and the “activity of Lek and Fyn in T cells” value (Lek and Fyn in T cells) is listed as “reduced”.

In the case of `Cc1ccc(NC(=O)c2ccc(CN3CCN(C)CC3)cc2)cc1Nc1nccc(-c2cccnc2)n1` [Imatinib], the “parasite survival (infected cells, tachyzoites per 100 cells)” value (T. gondii [1]) is reported as “No significant difference”.

In the case of `COc1cc2ncnc(Nc3ccc(F)c(Cl)c3)c2cc1OCCCN1CCOCC1` [Gefitinib], the “parasite load and histopathology in the eye and brain” value (T. gondii [2]) is listed as “partial reduction”.
